Measurements from US20250115654A1, “PHARMACEUTICAL COMPOSITION OF GLP-1 RECEPTOR AND GIP RECEPTOR DUAL AGONIST, AND USE THEREOF” (FUJIAN SHENGDI PHARMACEUTICAL CO., LTD., priority 2021, published 2025).
Numbered stars: 1 amine (or outer) side, 2 acyl side, 3 side chain; on linkers, the order of the positions; unused ones are H or OH. Square brackets hold non-standard residues; d marks the D form. Side chains are listed from the residue outwards. Peptide text beside a SMILES is read from it. * marks the point of attachment. C20 diacid = O=C(O)CCCCCCCCCCCCCCCCCCC(=O)*; γGlu = O=C(O)[C@H](CCC(=O)[*:2])N[*:1]; AEEA = NCCOCCOCC(=O)O; Aib = CC(C)(N)C(=O)O

Key:
[1] = tested on: db/db mice; experiment: Glucose metabolism level of db/db mice (fasting and random blood glucose, glycated hemoglobin); format: in vivo, C57BL/KsJ-db/db mice; details: for Glycated hemoglobin (%, mean ± SD): end of experiment day 28
Procedure: Each administration group had 10 db/db mice. According to the experimental design, tail vein blood was collected by needle pricking on days 0, 7, 14, 21, and 28 and determined for fasting blood glucose levels with a glucometer and glucose dipsticks, and the mice were fasted 6 h prior to the blood collection at each time point. Tail vein blood was collected by needle pricking on days 3, 10, 17, 24, and 27 and randomly determined for blood glucose levels with a glucometer. Finally, at the end of the experiment on day 28, all the animals in the administration groups were subjected to 2-5% isoflurane inhalation anesthesia, and 100 μL of whole blood was collected through the orbit of each mouse using an EDTA-K2 anticoagulation tube and used for the determination of glycated hemoglobin.

[2] = tested on: DIO mice; experiment: Food intake of DIO (diet-induced obesity) mice; format: in vivo, C57BL/6 mice; details: 3 nmol/kg
Procedure: High-fat food-induced-obesity male C57BL/6 mice (weighing 35-55 g, aged 10-12 weeks, purchased from Shanghai Jiesijie Laboratory Animal Co., Ltd.) were tested. […] According to the experimental design, the body weight of each mouse was measured and recorded on day 0, day 3, day 6, and so on to day 27, the average body weight of each group of mice was calculated, and body weight change curves were plotted by taking the body weight on the first day as the standard. At the end, the fat and other visceral organs of each part of the mice were taken out and weighed, and the viscera/brain ratio for fat in each part of each mouse was calculated. The effect of the drug on the fat was determined by comparing the change in the viscera/brain ratio for fat of different parts of each group of mice.
The food intake of mice in each group was measured daily during the experiment.

## CC[C@H](C)[C@H](NC(=O)[C@H](CCCCN)NC(=O)[C@H](CCC(=O)O)NC(=O)[C@H](CCCCNC(=O)COCCOCCNC(=O)COCCOCCNC(=O)CC[C@H](NC(=O)CCCCCCCCCCCCCCCCCCC(=O)O)C(=O)O)NC(=O)[C@H](Cc1ccc(O)cc1)NC(=O)[C@@H](NC(=O)[C@H](CO)NC(=O)[C@H](Cc1ccc(O)cc1)NC(=O)[C@H](CC(=O)O)NC(=O)[C@H](CO)NC(=O)[C@@H](NC(=O)[C@H](Cc1ccccc1)NC(=O)[C@@H](NC(=O)CNC(=O)[C@H](CCC(=O)O)NC(=O)C(C)(C)NC(=O)[C@@H](N)Cc1ccc(O)cc1)[C@@H](C)O)[C@@H](C)O)[C@@H](C)CC)C(=O)N[C@@H](C)C(=O)N[C@@H](C)C(=O)N[C@@H](CCC(N)=O)C(=O)N[C@@H](CCC(=O)O)C(=O)N[C@@H](Cc1ccccc1)C(=O)N[C@H](C(=O)N[C@@H](CC(N)=O)C(=O)N[C@@H](Cc1c[nH]c2ccccc12)C(=O)N[C@@H](CC(C)C)C(=O)N[C@@H](CC(C)C)C(=O)N[C@@H](C)C(=O)NCC(=O)NCC(=O)N1CCC[C@H]1C(=O)N[C@@H](CO)C(=O)N[C@@H](CO)C(=O)NCC(=O)N[C@@H](C)C(=O)N1CCC[C@H]1C(=O)N1CCC[C@H]1C(=O)N1CCC[C@H]1C(=O)N[C@@H](CO)C(N)=O)C(C)C [Compound 18#] (H-Y[Aib]EGTFTSDYSIYK([AEEA-AEEA-γGlu-C20 diacid])EKIAAQEFVNWLLAGGPSSGAPPPS-NH2)
[1]; 10 nmol/kg, Day 0
  Concentration of fasting blood glucose (mMol/L, mean ± SD): 14.77 ± 1.30 mmol/L
  Concentration of random blood glucose (mMol/L, mean ± SD): 20.42 ± 1.56 mmol/L
[1]; 10 nmol/kg, Day 7
  Concentration of fasting blood glucose (mMol/L, mean ± SD): 6.05 ± 0.42 mmol/L
[1]; 10 nmol/kg, Day 10
  Concentration of random blood glucose (mMol/L, mean ± SD): 20.66 ± 1.48 mmol/L
[1]; 10 nmol/kg, Day 14
  Concentration of fasting blood glucose (mMol/L, mean ± SD): 6.30 ± 0.46 mmol/L
[1]; 10 nmol/kg, Day 17
  Concentration of random blood glucose (mMol/L, mean ± SD): 18.91 ± 1.33 mmol/L
[1]; 10 nmol/kg, Day 21
  Concentration of fasting blood glucose (mMol/L, mean ± SD): 7.89 ± 0.81 mmol/L
[1]; 10 nmol/kg, Day 24
  Concentration of random blood glucose (mMol/L, mean ± SD): 21.17 ± 2.07 mmol/L
[1]; 10 nmol/kg, Day 28
  Concentration of fasting blood glucose (mMol/L, mean ± SD): 9.41 ± 0.97 mmol/L
[1]; 10 nmol/kg
  Glycated hemoglobin (%, mean ± SD): 4.71 ± 0.23 %
[1]; 30 nmol/kg, Day 0
  Concentration of fasting blood glucose (mMol/L, mean ± SD): 14.13 ± 1.32 mmol/L
  Concentration of random blood glucose (mMol/L, mean ± SD): 16.73 ± 1.59 mmol/L
[1]; 30 nmol/kg, Day 7
  Concentration of fasting blood glucose (mMol/L, mean ± SD): 6.21 ± 0.26 mmol/L
[1]; 30 nmol/kg, Day 10
  Concentration of random blood glucose (mMol/L, mean ± SD): 15.88 ± 1.86 mmol/L
[1]; 30 nmol/kg, Day 14
  Concentration of fasting blood glucose (mMol/L, mean ± SD): 6.40 ± 0.57 mmol/L
[1]; 30 nmol/kg, Day 17
  Concentration of random blood glucose (mMol/L, mean ± SD): 17.30 ± 1.17 mmol/L
[1]; 30 nmol/kg, Day 21
  Concentration of fasting blood glucose (mMol/L, mean ± SD): 7.03 ± 0.52 mmol/L
[1]; 30 nmol/kg, Day 24
  Concentration of random blood glucose (mMol/L, mean ± SD): 17.43 ± 1.92 mmol/L
[1]; 30 nmol/kg, Day 28
  Concentration of fasting blood glucose (mMol/L, mean ± SD): 9.68 ± 1.03 mmol/L
[1]; 30 nmol/kg
  Glycated hemoglobin (%, mean ± SD): 4.53 ± 0.17 %
[1]; 100 nmol/kg, Day 0
  Concentration of fasting blood glucose (mMol/L, mean ± SD): 14.67 ± 1.46 mmol/L
  Concentration of random blood glucose (mMol/L, mean ± SD): 9.11 ± 1.25 mmol/L
[1]; 100 nmol/kg, Day 7
  Concentration of fasting blood glucose (mMol/L, mean ± SD): 5.85 ± 0.33 mmol/L
[1]; 100 nmol/kg, Day 10
  Concentration of random blood glucose (mMol/L, mean ± SD): 12.34 ± 1.12 mmol/L
[1]; 100 nmol/kg, Day 14
  Concentration of fasting blood glucose (mMol/L, mean ± SD): 6.25 ± 0.32 mmol/L
[1]; 100 nmol/kg, Day 17
  Concentration of random blood glucose (mMol/L, mean ± SD): 11.89 ± 1.15 mmol/L
[1]; 100 nmol/kg, Day 21
  Concentration of fasting blood glucose (mMol/L, mean ± SD): 6.13 ± 0.19 mmol/L
[1]; 100 nmol/kg, Day 24
  Concentration of random blood glucose (mMol/L, mean ± SD): 11.51 ± 0.95 mmol/L
[1]; 100 nmol/kg, Day 28
  Concentration of fasting blood glucose (mMol/L, mean ± SD): 7.89 ± 0.41 mmol/L
[1]; 100 nmol/kg, listed as 18#
  Glycated hemoglobin (%, mean ± SD): 3.78%
[1]; 100 nmol/kg, listed as #18
  Glycated hemoglobin (%, mean ± SD): 3.78 ± 0.13 %
[2]; 28 days after the administration
  cumulative food intake: 58.2 g
[2]; day 1 after administration
  daily food intake ration: 0.6 ± 0.1 g
[2]; day 1 after administration, listed as 18#
  daily food intake ration: 0.6 g
[2]; day 2 after administration
  daily food intake ration: 1.3 ± 0.5 g
[2]; day 3 after administration
  daily food intake ration: 2 ± 0.5 g
[2]; day 4 after administration
  daily food intake ration: 1.1 ± 0.4 g
[2]; day 5 after administration
  daily food intake ration: 2.2 ± 1.3 g
[2]; day 6 after administration
  daily food intake ration: 2.1 ± 1.1 g
[2]; day 7 after administration
  daily food intake ration: 1.1 ± 0.6 g
[2]; day 8 after administration
  daily food intake ration: 1.6 ± 0.6 g
[2]; day 9 after administration
  daily food intake ration: 2.5 ± 0.9 g
[2]; day 10 after administration
  daily food intake ration: 1.3 ± 0.6 g
[2]; day 11 after administration
  daily food intake ration: 2 ± 0.3 g
[2]; day 12 after administration
  daily food intake ration: 3 ± 1 g
[2]; day 13 after administration
  daily food intake ration: 1.8 ± 1 g
[2]; day 14 after administration
  daily food intake ration: 2.3 ± 1 g
[2]; day 15 after administration
  daily food intake ration: 2.9 ± 0.7 g
[2]; day 16 after administration
  daily food intake ration: 1.5 ± 0.7 g
[2]; day 17 after administration
  daily food intake ration: 2.2 ± 0.5 g
[2]; day 18 after administration
  daily food intake ration: 2.7 ± 0.3 g
[2]; day 19 after administration
  daily food intake ration: 1.7 ± 0.5 g
[2]; day 20 after administration
  daily food intake ration: 2.2 ± 0.5 g
[2]; day 21 after administration
  daily food intake ration: 3.4 ± 0.4 g
[2]; day 22 after administration
  daily food intake ration: 1.8 ± 0.5 g
[2]; day 23 after administration
  daily food intake ration: 2.6 ± 0.4 g
[2]; day 24 after administration
  daily food intake ration: 2.9 ± 0.5 g
[2]; day 25 after administration
  daily food intake ration: 1.8 ± 0.8 g
[2]; day 26 after administration
  daily food intake ration: 2.5 ± 0.9 g
[2]; day 27 after administration
  daily food intake ration: 3.9 ± 0.5 g
[2]; day 28 after administration
  daily food intake ration: 1.3 ± 0.6 g
[2]; within 5 days after the administration
  cumulative food intake: 7.2 g
